The values that follow come from patent publication US12180185B2, “Compound as protein kinase inhibitor, and pharmaceutical composition comprising thereof” (HK INNO.N Corporation, priority 2018, dated 2024).

Chain of JAK1 (P23458 whole entry): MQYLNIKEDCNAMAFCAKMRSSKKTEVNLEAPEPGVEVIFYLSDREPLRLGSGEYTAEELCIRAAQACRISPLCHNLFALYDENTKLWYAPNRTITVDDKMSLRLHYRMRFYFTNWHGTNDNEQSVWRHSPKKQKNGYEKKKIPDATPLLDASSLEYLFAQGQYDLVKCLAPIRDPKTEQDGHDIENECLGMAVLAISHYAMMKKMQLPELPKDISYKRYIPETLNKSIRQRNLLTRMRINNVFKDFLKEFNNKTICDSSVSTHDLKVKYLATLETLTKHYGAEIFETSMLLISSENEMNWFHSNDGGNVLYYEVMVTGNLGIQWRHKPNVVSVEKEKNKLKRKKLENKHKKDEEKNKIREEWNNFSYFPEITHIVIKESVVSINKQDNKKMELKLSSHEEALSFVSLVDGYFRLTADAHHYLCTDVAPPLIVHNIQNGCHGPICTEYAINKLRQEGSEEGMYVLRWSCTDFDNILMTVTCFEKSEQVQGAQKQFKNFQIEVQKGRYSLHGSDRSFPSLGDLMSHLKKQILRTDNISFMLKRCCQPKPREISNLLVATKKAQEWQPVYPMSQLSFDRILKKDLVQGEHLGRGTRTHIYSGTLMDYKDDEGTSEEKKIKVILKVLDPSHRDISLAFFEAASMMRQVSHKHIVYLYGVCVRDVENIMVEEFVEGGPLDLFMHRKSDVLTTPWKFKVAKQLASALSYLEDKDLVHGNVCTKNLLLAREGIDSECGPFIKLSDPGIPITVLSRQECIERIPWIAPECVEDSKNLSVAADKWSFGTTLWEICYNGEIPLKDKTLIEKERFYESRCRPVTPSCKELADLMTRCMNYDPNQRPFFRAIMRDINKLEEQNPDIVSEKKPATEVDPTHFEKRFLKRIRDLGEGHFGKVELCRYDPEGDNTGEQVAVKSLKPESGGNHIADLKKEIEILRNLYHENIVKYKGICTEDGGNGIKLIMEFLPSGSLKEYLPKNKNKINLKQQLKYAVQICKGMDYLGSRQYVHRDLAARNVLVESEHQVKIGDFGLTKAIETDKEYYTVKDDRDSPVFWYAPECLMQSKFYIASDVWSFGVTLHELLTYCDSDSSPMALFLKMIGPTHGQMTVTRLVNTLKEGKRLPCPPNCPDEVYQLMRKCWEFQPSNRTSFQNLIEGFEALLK

For the experiment, the target named is JAK1 (Homo sapiens (Human), UniProt P23458). The experiment can be described thus: Analysis of JAK1 activity inhibitory capacity (ADP-Glo Kinase assay). It counts as biochemical. The conditions noted are these: JAK1 enzyme, ATP 250 uM, IRS-1tide substrate, 30° C. 40 minutes, luminescence. How it is done:
Experimental Example 1: Analysis of JAK1 activity inhibitory capacity (ADP-Glo™ Kinase assay)
An inhibitory effect of the inventive compound on JAK was identified as follows.
A control material and a test material were prepared through dilution at each concentration by using DMSO. At the same time, ATP (250 uM) and JAK's substrate (JAK1, IRS-1tide 40 ng/mL) were prepared through dilution in kinase buffer (40 mM Tris-HCl pH 7.5, 20 mM MgCl2, 0.5 mg/mL BSA, 50 uM DTT).
A test drug for each concentration, the substrate, the ATP and JAK enzymes were mixed in an eppendorf tube, and then subjected to reaction in an incubator at 30° C. for 40 minutes.
ADP-Glo ? reagent included in ADP-Glo™ Kinase Enzyme System (Promega, USA, V9571) was added to each eppendorf tube, and then subjected to reaction in the incubator at 30° C. for 40 minutes.
A kinase detection reagent included in the ADP-Glo™ Kinase Enzyme System was inserted into the eppendorf tube, after which luminescence was measured by using Wallac Victor 2TM with an integration time set to 1 second, such that an inhibitory capacity of the test material on JAKs phosphorylation was analyzed. A concentration of the compound, at which JAK enzyme activity inhibition occurs 50% compared to the control group, was determined as IC50 (nM) of an inhibitor.
A general note: In ADP-Glo the light output rises with the ADP produced.
In turn, `Cn1cccc(C(=O)Nc2cccc3c(-c4ccnc(NC(=O)C5CC5)c4)c[nH]c23)c1=O` [Example 34, N-(3-(2-(cyclopropanecarboxamido)pyridin-4-yl)-1H-indol-7-yl)-1-methyl-2-oxo-1,2-dihydropyridine-3-carboxamide] displayed a half-inhibitory concentration (IC50) of 100 to 1000 nM.
With `O=C(Nc1cccc2c(-c3ccnc(NC(=O)C4CC4)c3)c[nH]c12)c1cc[nH]n1` [Example 33, N-(3-(2-(cyclopropanecarboxamido)pyridin-4-yl)-1H-indol-7-yl)-1H-pyrazole-3-carboxamide] the figure was 100 to 1000 nM; with `Cc1ncc(C(=O)Nc2cccc3c2ccn3-c2ccnc(NC(=O)C3CC3)c2)s1` [Example 43, N-(1-(2-(cyclopropanecarboxamido)pyridin-4-yl)-1H-indol-4-yl)-2-methylthiazole-5-carboxamide], over 1000 nM.
Turning to `Cc1cc(NC(=O)c2cnc(C)cn2)c2[nH]cc(-c3ccnc(NC(=O)C4CC4)c3)c2c1` [Example 16, N-(3-(2-(cyclopropanecarboxamido)pyridin-4-yl)-5-methyl-1H-indol-7-yl)-5-methylpyrazine-2-carboxamide], the IC50 lay in the range of 100 to 1000 nM.
In turn, `COc1ccc(C(=O)Nc2cccc3c2ccn3-c2ccnc(NC(=O)C3CC3)c2)cc1F` [Example 56, N-(1-(2-(cyclopropanecarboxamido)pyridin-4-yl)-1H-indol-4-yl)-3-fluoro-4-methoxybenzamide] registered an IC50 of 100 to 1000 nM.
`CC(C#N)C(=O)Nc1cccc2c(-c3ccnc(NC(=O)C4CC4)c3)c[nH]c12` (stereo not shown) [Example 14, N-(4-(7-(2-cyanopropanamido)-1H-indol-3-yl)pyridin-2-yl)cyclopropanecarboxamide] had an IC50 of under 100 nM.
For `O=C(Nc1cccc2c(-c3ccnc(NC(=O)C4CC4)c3)c[nH]c12)c1cncc(F)c1` [Example 31, N-(3-(2-(cyclopropanecarboxamido)pyridin-4-yl)-1H-indol-7-yl)-5-fluoronicotinamide], the half-inhibitory concentration (IC50) was under 100 nM.
The compound `Cn1c(C(=O)Nc2cccc3c2ccn3-c2ccnc(NC(=O)C3CC3)c2)cc2ccccc21` [Example 49, N-(1-(2-(cyclopropanecarboxamido)pyridin-4-yl)-1H-indol-4-yl)-1-methyl-1H-indole-2-carboxamide] had an IC50 of over 1000 nM.
With `O=C(Nc1cccc2c(-c3ccnc(NC(=O)C4CC4)c3)c[nH]c12)c1ccnc(F)c1` [Example 4, N-(3-(2-(cyclopropanecarboxamido)pyridin-4-yl)-1H-indol-7-yl)-2-fluoroisonicotinamide] the figure was under 100 nM; with `O=C(Nc1cc(-c2c[nH]c3c(NC(=O)C4CCCCC4)cccc23)ccn1)C1CC1` [Example 3, N-(3-(2-(cyclopropanecarboxamido)pyridin-4-yl)-1H-indol-7-yl)cyclohexanecarboxamide], 100 to 1000 nM.
In turn, `COc1cc(-c2c[nH]c3c(NC(=O)CC#N)cccc23)cc(NC(=O)C2CC2)n1` [Example 20, N-(4-(7-(2-cyanoacetamido)-1H-indol-3-yl)-6-methoxypyridin-2-yl)cyclopropanecarboxamide] gave an IC50 of over 1000 nM.
Turning to `O=C(Nc1cccc2c(-c3ccnc(NC(=O)C4CC4)c3)c[nH]c12)c1ccc[nH]1` [Example 23, N-(3-(2-(cyclopropanecarboxamido)pyridin-4-yl)-1H-indol-7-yl)-1H-pyrrole-2-carboxamide], the IC50 fell in the range of 100 to 1000 nM.
For the compound `O=C(Nc1cccc2c(-c3ccnc(NC(=O)C4CC4)c3)c[nH]c12)c1cc(F)cc(F)c1` [Example 2, N-(3-(2-(cyclopropanecarboxamido)pyridin-4-yl)-1H-indol-7-yl)-3,5-difluorobenzamide], the half-maximal inhibitory concentration (IC50) is under 100 nM.
`N#C[C@H]1C[C@H]1C(=O)Nc1cccc2c1ccn2-c1ccnc(NC(=O)C2CC2)c1` [Example 57, (1R,2S)-2-cyano-N-(1-(2-(cyclopropanecarboxamido)pyridin-4-yl)-1H-indol-4-yl) cyclopropane-1-carboxamide] gave an IC50 of under 100 nM.
As to `O=C(NCC(F)(F)F)Nc1cccc2c1ccn2-c1ccnc(NC(=O)C2CC2)c1` [Example 62, N-(4-(4-(3-(2,2,2-trifluoroethyl)ureido)-1H-indol-1-yl)pyridin-2-yl)cyclopropanecarboxamide], the half-inhibitory concentration (IC50) is under 100 nM.
In turn, `CC(C)=C(C)C(=O)Nc1cccc2c1ccn2-c1ccnc(NC(=O)C2CC2)c1` [Example 60, N-(4-(4-(2,3-dimethylbut-2-enamido)-1H-indol-1-yl)pyridin-2-yl)cyclopropanecarboxamide] displayed an IC50 of over 1000 nM.
On to `N#CC1(C(=O)Nc2cccc3c(-c4ccnc(NC(=O)C5CC5)c4)c[nH]c23)CCOCC1` [Example 11, 4-cyano-N-(3-(2-(cyclopropanecarboxamido)pyridin-4-yl)-1H-indol-7-yl)tetrahydro-2H-pyran-4-carboxamide], for which the IC50 fell in the range of 100 to 1000 nM.
The compound `O=C(Nc1cccc2c1ccn2-c1ccnc(NC(=O)C2CC2)c1)c1cc(F)cc(F)c1` [Example 44, N-(1-(2-(cyclopropanecarboxamido)pyridin-4-yl)-1H-indol-4-yl)-3,5-difluorobenzamide] yielded an IC50 of over 1000 nM.
With `N#Cc1ccc(C(=O)Nc2cccc3c(-c4ccnc(NC(=O)C5CC5)c4)c[nH]c23)cc1` [Example 27, 4-cyano-N-(3-(2-(cyclopropanecarboxamido)pyridin-4-yl)-1H-indol-7-yl)benzamide] the figure was 100 to 1000 nM; with `COc1cc(-c2c[nH]c3c(NC(=O)C(C#N)=C(C)C)cccc23)cc(NC(=O)C2CC2)n1` [Example 19, N-(4-(7-(2-cyano-3-methylbut-2-enamido)-1H-indol-3-yl)-6-methoxypyridin-2-yl)cyclopropanecarboxamide], over 1000 nM; with `N#C/C(=C\c1ccccc1)C(=O)Nc1cccc2c(-c3ccnc(NC(=O)C4CC4)c3)c[nH]c12` [Example 22, (E)-N-(4-(7-(2-cyano-3-phenylacrylamido)-1H-indol-3-yl)pyridin-2-yl)cyclopropanecarboxamide], 100 to 1000 nM.
With `CC(C)=C(C#N)C(=O)Nc1cccc2c(-c3ccnc(NC(=O)C4CC4)c3)cn(C)c12` [Example 26, N-(4-(7-(2-cyano-3-methylbut-2-enamido)-1-methyl-1H-indol-3-yl)pyridin-2-yl)cyclopropanecarboxamide] the figure was over 1000 nM.
With `CCc1c[nH]c(C(=O)Nc2cccc3c(-c4ccnc(NC(=O)C5CC5)c4)c[nH]c23)c1` [Example 36, N-(3-(2-(cyclopropanecarboxamido)pyridin-4-yl)-1H-indol-7-yl)-4-ethyl-1H-pyrrole-2-carboxamide], the 50% inhibitory concentration (IC50) was in the range of 100 to 1000 nM.
`CC(C)=C(C#N)C(=O)Nc1cc(C)cc2c(-c3ccnc(NC(=O)C4CC4)c3)c[nH]c12` [Example 15, N-(4-(7-(2-cyano-3-methylbut-2-enamido)-5-methyl-1H-indol-3-yl)pyridin-2-yl)cyclo propanecarboxamide] had an IC50 of 100 to 1000 nM.
In the case of `O=C(Nc1cccc2c(-c3ccnc(NC(=O)C4CC4)c3)c[nH]c12)c1cccc(F)c1` [Example 38, N-(3-(2-(cyclopropanecarboxamido)pyridin-4-yl)-1H-indol-7-yl)-3-fluorobenzamide], the 50% inhibitory concentration (IC50) was in the range of 100 to 1000 nM.
The compound `Cc1ccncc1C(=O)Nc1cccc2c(-c3ccnc(NC(=O)C4CC4)c3)c[nH]c12` [Example 24, N-(3-(2-(cyclopropanecarboxamido)pyridin-4-yl)-1H-indol-7-yl)-4-methylnicotinamide] showed an IC50 of under 100 nM.
On to `O=C(Nc1cccc2c1ccn2-c1ccnc(NC(=O)C2CC2)c1)c1ccnc(F)c1F` [Example 53, N-(1-(2-(cyclopropanecarboxamido)pyridin-4-yl)-1H-indol-4-yl)-2,3-difluoroisonicotinamide], for which the half-maximal inhibitory concentration (IC50) was 100 to 1000 nM.
`O=C(Nc1cccc2c(-c3ccnc(NC(=O)C4CC4)c3)c[nH]c12)c1ccc(C(F)(F)F)nc1` [Example 29, N-(3-(2-(cyclopropanecarboxamido)pyridin-4-yl)-1H-indol-7-yl)-6-(trifluoromethyl) nicotinamide] gave a half-inhibitory concentration (IC50) of 100 to 1000 nM.

What is called IC50 is the concentration that gives 50% inhibition. A lower IC50 goes with greater potency.
